Measured values published in patent publication US8178506B2, “Oligomeric compounds and compositions for use in modulation of small non-coding RNAs” (Regulus Therapeutics Inc., priority 2003, dated 2012).
In the oligonucleotide strings, read from the 5' end, every base follows the letter of its sugar. An asterisk marks phosphorothioate; unmarked linkages are phosphodiester. Other units and linkages are bracketed, terminal groups are in braces. A string of capitals states the bases alone. e = 2'-O-(2-methoxyethyl) (MOE); [5mC] = 5-methylcytosine; d = 2'-deoxy (DNA)

Tested on: differentiated adipocytes
Assay: Hallmark genes and triglycerides in differentiated adipocytes
Assay type: cell-based, human
Settings: Table 28; differentiated adipocytes transfected day nine post-differentiation; 250 nM oligonucleotide
From the text: The effect of the oligomeric compounds of the present invention targeting miRNAs on the expression of markers of cellular differentiation was examined in differentiated adipocytes.
As previously described, the HSL, aP2, Glut4, and PPARγ genes play important rolls in the uptake of glucose and the metabolism and utilization of fats. Also as previously described, an increase in triglyceride content is another well-established marker for adipocyte differentiation. Human white preadipocytes (Zen-Bio Inc., Research Triangle Park, N.C.) were grown in preadipocyte media (ZenBio Inc.). After the cells reached confluence (approximately three days), they were exposed to differentiation media (Zen-Bio, Inc.) containing a PPAR-γ agonist, IBMX, dexamethasone, and insulin for three days. Cells were then fed Adipocyte Medium (Zen-Bio, Inc.), which was replaced at 2 to 3 day intervals. One day before transfection, 96-well plates were seeded with 3000 cells/well. Cells were then transfected on day nine post-differentiation, according to standard published procedures with 250 nM oligonucleotide in LIPOFECTIN™ (Invitrogen Corporation, Carlsbad, Calif.) (Monia et al., J. Biol. Chem. 1993 268(19):14514-22). Oligomeric compounds were tested in triplicate on each 96-well plate, and the effect of TNF-α, known to inhibit adipocyte differentiation, was also measured in triplicate. Oligomeric compound treatments and transfectant-only negative controls may be measured up to six times per plate. On day twelve post-differentiation, cells were washed and lysed at room temperature, and the expression of the four hallmark genes, HSL, aP2, Glut4, and PPARγ, as well as triglyceride (TG) accumulation were measured in adipocytes transfected with the uniform 2′-MOE phosphorothioate (PS) previously described in Example 13 as well as the chimeric gapmer oligomeric compounds targeting the mir-143 miRNA and the mir-143 pri-miRNA described in Example 16. On day twelve post-differentiation, cells were lysed in a guanadinium-containing buffer and total RNA was harvested. The amount of total RNA in each sample was determined using a Ribogreen Assay (Molecular Probes, Eugene, Oreg.). Real-time PCR was performed on the total RNA using primer/probe sets for the adipocyte differentiation hallmark genes Glut4, HSL, aP2, and PPARγ. Triglyceride levels as well as mRNA levels for each of the four adipocyte differentiation hallmark genes are expressed relative to control levels (control=treatment with ISIS-29848 (SEQ ID NO: 737)).

| Substance | Glut4 | HSL | PPAR gamma | TG | aP2 |
| --- | --- | --- | --- | --- | --- |
| 327889 (antisense eG*eT*eG*eG*eT*eA*eA*eT*e[5mC]*e[5mC]*e[5mC]*eT*eG*eG*e[5mC]*eA*eA*eT*eG*eT*eG*eA*eT) [compound 327889] | 0.99 | 0.77 | 1.63 | 1.09 | 1.12 |
| 327922 (antisense eT*e[5mC]*eA*eG*eT*eT*eT*eT*eG*e[5mC]*eA*eT*eG*eG*eA*eT*eT*eT*eG*e[5mC]*eA*e[5mC]*eA) [compound 327922] | 0.61 | 1.01 | 0.99 | 1.48 | 0.91 |
| 327876 (antisense eA*eA*e[5mC]*eA*e[5mC]*eT*eG*eA*eT*eT*eT*e[5mC]*eA*eA*eA*eT*eG*eG*eT*eG*e[5mC]*eT*eA) [compound 327876] | 3.53 | 0.81 | 1.28 | 1.16 | 0.67 |
| 327903 (antisense eA*eA*e[5mC]*eT*eA*eT*eA*e[5mC]*eA*eA*e[5mC]*e[5mC]*eT*eA*e[5mC]*eT*eA*e[5mC]*e[5mC]*eT*e[5mC]*eA) [compound 327903] | 0.36 | 0.53 | 0.91 | 1.12 | 0.56 |
| 327888 (antisense eA*eA*eT*eG*e[5mC]*e[5mC]*e[5mC]*e[5mC]*eT*eA*eA*eA*eA*eA*eT*e[5mC]*e[5mC]*eT*eT*eA*eT) [compound 327888] | 0.56 | 0.84 | 1.69 | 1.13 | 0.73 |
| 327901 (antisense eT*eG*eA*eG*e[5mC]*eT*eA*e[5mC]*eA*eG*eT*eG*e[5mC]*eT*eT*e[5mC]*eA*eT*e[5mC]*eT*e[5mC]*eA) [compound 327901] | 2.20 | 1.47 | 1.34 | 1.12 | 1.28 |
| 327880 (antisense eA*e[5mC]*eA*eA*eA*eT*eT*e[5mC]*eG*eG*eT*eT*e[5mC]*eT*eA*e[5mC]*eA*eG*eG*eG*eT*eA) [compound 327880] | 0.76 | 0.93 | 1.86 | 1.12 | 1.14 |
| 340927 (antisense eT*eG*eA*eG*e[5mC]*dT*dA*d[5mC]*dA*dG*dT*dG*d[5mC]*dT*dT*e[5mC]*eA*eT*e[5mC]*eT*e[5mC]*eA) [compound 340927] | 0.96 | 0.64 | 1.21 | 1.61 | 0.71 |
| 327933 (antisense eA*eA*eG*eG*eG*eA*eT*eT*e[5mC]*e[5mC]*eT*eG*eG*eG*eA*eA*eA*eA*e[5mC]*eT*eG*eG*eA*e[5mC]) [compound 327933] | 2.12 | 1.30 | 1.60 | 1.63 | 1.58 |
| 327941 (antisense eA*eA*e[5mC]*e[5mC]*e[5mC]*eA*e[5mC]*e[5mC]*eG*eA*e[5mC]*eA*eG*e[5mC]*eA*eA*eT*eG*eA*eA*eT*eG*eT*eT) [compound 327941] | 0.90 | 1.17 | 1.66 | 1.33 | 0.90 |
| 327913 (antisense eA*eA*e[5mC]*e[5mC]*eG*eA*eT*eT*eT*e[5mC]*eA*eA*eA*eT*eG*eG*eT*eG*e[5mC]*eT*eA*eG) [compound 327913] | 1.52 | 1.09 | 1.29 | 1.12 | 1.05 |
| 327934 (antisense eG*eG*eT*eA*e[5mC]*eA*eA*eT*e[5mC]*eA*eA*e[5mC]*eG*eG*eT*e[5mC]*eG*eA*eT*eG*eG*eT) [compound 327934] | 1.52 | 1.97 | 1.54 | 1.43 | 1.50 |
| 338664 (antisense e[5mC]*eA*eG*eA*e[5mC]*eT*e[5mC]*e[5mC]*e[5mC]*eA*eA*e[5mC]*eT*eG*eA*e[5mC]*e[5mC]*eA*eG*eA) [compound 338664] | 1.08 | 1.01 | 1.06 | 1.72 | 0.77 |
| 327890 (antisense eA*eG*e[5mC]*eA*e[5mC]*eA*eA*eA*e[5mC]*eT*eA*e[5mC]*eT*eA*e[5mC]*e[5mC]*eT*e[5mC]*eA) [compound 327890] | 0.37 | 0.42 | 1.05 | 1.13 | 0.35 |
| 327954 (antisense eA*e[5mC]*eA*eA*eA*eG*eT*eT*e[5mC]*eT*eG*eT*eG*eA*eT*eG*e[5mC]*eA*e[5mC]*eT*eG*eA) [compound 327954] | 0.61 | 1.35 | 1.46 | 1.46 | 1.23 |
| 327925 (antisense eT*eA*eG*e[5mC]*eT*eG*eG*eT*eT*eG*eA*eA*eG*eG*eG*eG*eA*e[5mC]*e[5mC]*eA*eA) [compound 327925] | 0.74 | 1.20 | 1.30 | 1.33 | 0.78 |
| 327892 (antisense eA*e[5mC]*eT*eT*eT*e[5mC]*eG*eG*eT*eT*eA*eT*e[5mC]*eT*eA*eG*e[5mC]*eT*eT*eT*eA) [compound 327892] | 0.42 | 0.62 | 1.01 | 1.23 | 0.81 |
| 327878 (antisense e[5mC]*eT*eA*eG*eT*eG*eG*eT*e[5mC]*e[5mC]*eT*eA*eA*eA*e[5mC]*eA*eT*eT*eT*e[5mC]*eA*e[5mC]) [compound 327878] | 0.17 | 0.19 | 0.85 | 1.08 | 0.13 |
| 327905 (antisense e[5mC]*eA*eG*eA*e[5mC]*eT*e[5mC]*e[5mC]*eG*eG*eT*eG*eG*eA*eA*eT*eG*eA*eA*eG*eG*eA) [compound 327905] | 0.58 | 0.65 | 1.31 | 1.18 | 0.85 |
| 327919 (antisense eG*eA*eA*eA*e[5mC]*e[5mC]*e[5mC]*eA*eG*e[5mC]*eA*eG*eA*e[5mC]*eA*eA*eT*eG*eT*eA*eG*e[5mC]*eT) [compound 327919] | 1.82 | 0.83 | 1.80 | 1.15 | 1.20 |
| 328382 (e[5mC]*eA*eG*eA*e[5mC]*dT*d[5mC]*d[5mC]*d[5mC]*dA*dA*d[5mC]*dT*dG*dA*e[5mC]*e[5mC]*eA*eG*eA) [compound 328382] | 0.75 | 0.53 | 0.97 | 1.33 | 0.92 |

Tested on: ob/ob mice
Assay: ob/ob mice: plasma parameters, food consumption, marker gene mRNA
Assay type: in vivo, mouse
Settings: ob/ob mice, 25 mg/kg s.c. two times per week, 6 weeks
Summary of the method: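 Male C57Bl/6J ob/ob mice received oligomeric compound or control at 25 mg/kg s.c. twice weekly, for 4 weeks on a 10-15% fat diet or for 6 weeks on high-fat diet. Plasma glucose and insulin were measured at 0, 2 and 4 weeks; i.p. glucose/insulin tolerance tests were run; serum lipids, liver triglycerides and histology were assessed, with liver, BAT and WAT mRNA quantified by real-time PCR.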

| Substance | plasma cholesterol levels | plasma glucose levels (fed) | plasma triglyceride levels |
| --- | --- | --- | --- |
| TGAGCTACAGTGCTTCATCTCA [ISIS 340927] (chemistry not given here) [5-10-7 2′-MOE gapmer PS; targets mature mir-143] | slightly decrease over time | generally slightly lower | generally slightly lower |
| ACTTTCGGTTATCTAGCTTTA [ISIS 327892] (chemistry not given here) [uniform 2′-MOE PS; targets mir-131-2/mir-9] |  | reduced beginning at approximately four weeks after the start of treatment |  |

Same assay, conditions: ob/ob mice, 25 mg/kg two times per week

| Substance | mRNA expression levels of the Glut4, aP2 and HSL marker genes |
| --- | --- |
| TGAGCTACAGTGCTTCATCTCA [ISIS 327901] (chemistry not given here) [uniform 2′-MOE PS; targets mir-143] | slightly reduced |
| TGAGCTACAGTGCTTCATCTCA [ISIS 340927] (chemistry not given here) [5-10-7 2′-MOE gapmer PS; targets mature mir-143] | slightly reduced |

Same assay, conditions: ob/ob mice, day 19

| Substance | plasma glucose levels, fasted state |
| --- | --- |
| ACTTTCGGTTATCTAGCTTTA [ISIS 327892] (chemistry not given here) [uniform 2′-MOE PS; targets mir-131-2/mir-9] | significant reductions in plasma glucose levels |
